Converted amounts (≈) assume the structure as drawn.
Key:
Assay in all cases: MIC by broth dilution method
Assay type in all cases: cell-based
[1] = test system: Bacillus subtilis 327 (BGSC-1A1); conditions: 18 hours at 35° C.
[2] = test system: Candida albicans 54 (CA300); conditions: 18 hours at 35° C.
Experimental: (§1) The minimum inhibitory concentration (MIC), the lowest concentration of the antibiotic which inhibits growth of the test organism, is determined by the broth dilution method using Muller-Hinton II […] (Baltimore Biological Laboratories) following the recommendations of the National Committee for Clinical Laboratory Standards [Methods for dilution antimicrobial susceptibility tests for bacteria that grow aerobically. Approved standard M7-A2. National Committee for Clinical Laboratory Standards, Villanova, Pa].
(§2) An inoculum level of 5×10^5 CFU/ml, and a range of antibiotic concentrations (256-1.0 μg/ml) is used. The MIC is determined after the microtiter plates are incubated for 18 hours at 35° C. in an ambient air incubator. The test organisms comprise a spectrum of Gram-positive bacteria comprised of Staphylococcus sp., Enterococcus sp., Gram-negative bacterium Escherichia coli, and the yeast Candida albicans. These organisms include recent clinical isolates that are resistant to piperacillin and vancomycin.

[3] = test system: Escherichia coli 389 (GC4560 imp); conditions: 18 h
Experimental: as §1, §2

[4] = test system: Staphylococcus aureus 375 (ATCC3538p); conditions: 18 hours at 35° C.
Experimental: as §1, §2

[5] = test system: Enterococcus faecium 436 (ID3151); conditions: 18 hours at 35° C.
Experimental: as §1, §2

[6] = test system: Escherichia coli 442 (GC4559); conditions: 18 hours at 35° C.
Experimental: as §1, §2

[7] = test system: Staphylococcus aureus 310 (SSC8224, methicillin-resistant); conditions: 18 hours at 35° C.
Experimental: as §1, §2

[8] = test system: Enterococcus faecium 379 (NC12204, vancomycin-resistant); conditions: 18 hours at 35° C.
Experimental: as §1, §2

In the case of `C=C1OC(=O)c2c(cc3c(C4=C5C=C(O)C(=O)C(O)=C5C(CCCCCCC)OC4=O)c(O)cc(O)c3c2O)C1O` (centres unmarked) [Cytosporacin], the MIC [1] is reported as 32 µg/mL (≈ 56.7 µM), the MIC [2] is reported as greater than 256 µg/mL and the MIC [3] is reported as 64 µg/mL (≈ 113 µM). For the same compound, the MIC [4] was 32 µg/mL (≈ 56.7 µM), the MIC [5] was 16 µg/mL (≈ 28.3 µM) and the MIC [6] was 256 µg/mL (≈ 453 µM). The MIC [7] was 32 µg/mL (≈ 56.7 µM) and the MIC [8] was 64 µg/mL (≈ 113 µM).

— patent US6784204B2, “Antibiotic cytosporacin” (Wyeth Holdings Corporation, Five Giralda Farms, priority 2002, dated 2004)
